Earlier results, collected in patent US20260325482A1, “TASIMELTEON FOR USE IN THE TREATMENT OF DELAYED SLEEP-WAKE PHASE DISORDER” (VANDA PHARMACEUTICALS INC., priority 2023, published 2026).

What was measured:
[1] = high-calorie/high-fat meals
[2] = healthy volunteers, participants with primary insomnia, Non-24, and pediatric participants with SMS
MT2 receptor = MT2 receptor vs MT1 receptor
SMS = conditions: daily dose of 0.7 mg/kg once daily; patients having a body mass of 28 kg or less
Non-24 = conditions: daily dose of 20 mg administered once, before bedtime

- Cmax with food [1]: significantly lower
- Tmax with food [1]: delay
- extent of absorption with food [1]: not significantly affected
- linearity of pharmacokinetics (doses ranging from 3 mg to 300 mg): linear
- absolute bioavailability (oral): 38%
Compound: CCC(=O)NC[C@@H]1C[C@H]1c1cccc2c1CCO2 [tasimelteon]
- safety and tolerability [2]: safe and well-tolerated
- affinity for the MT2 receptor compared with the MT1 receptor (MT2 receptor): greater affinity for the MT2 receptor than the MT1 receptor
- effectiveness in treating SMS (SMS): effective
- effectiveness in treating Non-24 (Non-24): effective
